According to patent publication US12065445B2, “CDK2 inhibitors and methods of using the same” (Cedilla Therapeutics, Inc., priority 2021, dated 2024):

System: Kuramochi cells
Assay: BrdU Cell Proliferation Assay
Format: cell-based
Details: read-out: BrdU - KURAMOCHI.1: IC50
How it was run: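 Signal is 450 nm absorbance from a peroxidase anti-BrdU ELISA after a 1-hour BrdU label, background-subtracted and normalized to DMSO-treated wells. Kuramochi cells (2,000 per well) had been exposed to compound for 4 days. Dosing used a 10-point dose response in 3-fold steps.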

CC1(C)C[C@@H]1C(=O)N1CC2(CN(C(=O)c3cnn(Cc4ccccc4)c3)C[C@@H]2C(=O)NC2CCCN(C(=O)c3ccccc3)C2)C1 (stereo partly drawn) [I-59B]
IC50: > 10 µM

CO[C@H]1COCC[C@@H]1NC(=O)[C@H]1CN(C(=O)c2cnn(Cc3ccccc3)c2)CC12CN(C(=O)[C@H]1CC1(C)C)C2 [I-148B]
IC50: > 10 µM

CNC(=O)[C@@H](NC(=O)[C@H]1CN(C(=O)C2CCOCC2)CC12CN(C(=O)[C@H]1CC1(C)C)C2)[C@@H](C)OCc1ccccc1 [I-38B]
IC50: > 10 µM

CNC(=O)[C@@H](NC(=O)[C@@H]1CN(C(=O)c2cnn(CC3CCNCC3)c2)CC12CN(C(=O)[C@H]1CC1(C)C)C2)[C@@H](C)OCc1ccccc1 [I-19A]
IC50: > 10 µM

CNC(=O)[C@@H](NC(=O)[C@@H]1CN(C(=O)c2cnn(Cc3ccccc3)c2)CC12CN(C(=O)C1(CC3CC3)CC1)C2)[C@@H](C)OCc1ccccc1 [I-116A]
IC50: > 10 µM

CNC(=O)[C@@H](NC(=O)[C@H]1CN(C(=O)c2ccncc2)CC12CN(C(=O)[C@H]1CC1(C)C)C2)[C@@H](C)OCc1ccccc1 [I-46B]
IC50: > 10 µM

CNC(=O)[C@@H](NC(=O)[C@@H]1CN(C(=O)c2cnn(Cc3ccccc3)c2)CC12CN(C(=O)[C@H]1CC1(C)C)C2)[C@@H](C)OCC1CCC1 [I-144A]
IC50: > 10 µM

CC1(C)C[C@@H]1C(=O)N1CC2(CN(C(=O)c3cnn(Cc4ccccc4)c3)C[C@H]2C(=O)N2CCC[C@H](C(=O)NC3CCCCC3)C2)C1 [I-180]
IC50: > 10 µM

C[C@@H](OCC1CCCCC1)[C@H](NC(=O)[C@H]1CN(C(=O)c2cn[nH]c2)CC12CN(C(=O)[C@H]1CC1(C)C)C2)C(=O)N1CCC(F)(F)CC1 [I-154B]
IC50: > 10 µM

COC(=O)[C@H](CO)NC(=O)[C@H]1CN(C(=O)c2cnn(Cc3ccccc3)c2)CC12CN(C(=O)[C@H]1CC1(C)C)C2 [I-209B]
IC50: > 10 µM

CC1(C)C[C@@H]1C(=O)N1CC2(CN(C(=O)c3cnn(Cc4ccccc4)c3)C[C@H]2C(=O)N[C@H]2CCCN(C(=O)c3ccccc3)C2)C1 [I-83A]
IC50: > 10 µM

CC1(C)C[C@@H]1C(=O)N1CC2(CN(C(=O)c3cnn(Cc4ccccc4)c3)C[C@H]2C(=O)N[C@@H]2CCCN(CC3CCCCC3)C2)C1 [I-212]
IC50: > 10 µM

C[C@@H](OCC1CCCCC1)[C@H](NC(=O)[C@@H]1CN(C(=O)c2cnn(Cc3ccccc3)c2)CC12CN(C(=O)[C@H]1CC1(C)C)C2)C(=O)N1CC(CN)C1 [I-239]
IC50: > 10 µM

CC1(C)C[C@@H]1C(=O)N1CC2(CN(C(=O)c3cnn(Cc4ccccc4)c3)C[C@H]2C(=O)NC2CCN(C(=O)c3ccccc3)CC2)C1 [I-61A]
IC50: > 10 µM

CN(C(=O)[C@H]1CCCN(C(=O)[C@@H]2CN(C(=O)c3cnn(Cc4ccccc4)c3)CC23CN(C(=O)[C@H]2CC2(C)C)C3)C1)C1CCCCC1 [I-179]
IC50: > 10 µM

CNC(=O)[C@@H](NC(=O)[C@@H]1CN(C(=O)c2cnc(C)s2)CC12CN(C(=O)[C@H]1CC1(C)C)C2)[C@@H](C)OCC1CCCCC1 [I-156A]
IC50: 5 to 10 µM

COCC1CCCN(C(=O)[C@@H](NC(=O)C2CN(C(=O)c3cnn(Cc4ccccc4)c3)CC23CN(C(=O)[C@H]2CC2(C)C)C3)[C@@H](C)OCc2ccccc2)C1 (stereo partly drawn) [I-64]
IC50: 0.5 to 5 µM

CNC(=O)[C@@H](NC(=O)[C@@H]1CN(Cc2ccccn2)CC12CN(C(=O)[C@H]1CC1(C)C)C2)[C@@H](C)OCc1ccccc1 [I-40A]
IC50: > 10 µM

COc1cccc(CNC(=O)[C@H]2CN(C(=O)c3cnn(Cc4ccccc4)c3)CC23CN(C(=O)[C@H]2CC2(C)C)C3)n1 [I-126B]
IC50: > 10 µM

CNC(=O)[C@@H](NC(=O)[C@H]1CN(C(=O)c2cnn(Cc3ccccc3)c2)CC12CN(C(=O)C1(C#N)CC1)C2)[C@@H](C)OCc1ccccc1 [I-73B]
IC50: > 10 µM

CC1(C)C[C@@H]1C(=O)N1CC2(CN(C(=O)c3cnn(Cc4ccccc4)c3)C[C@@H]2C(=O)N[C@@H]2CC[C@@H]2O)C1 [I-201A]
IC50: > 10 µM

CNC(=O)[C@@H](NC(=O)[C@@H]1CN(C(=O)c2cnn(C)c2)CC12CN(C(=O)[C@H]1CC1(C)C)C2)[C@@H](C)OCc1ccccc1 [I-33A]
IC50: > 10 µM

CNC(=O)[C@@H](NC(=O)[C@@H]1CN(C(=O)c2cnn(Cc3ccccc3)c2)CC12CN(C(=O)C1(F)CC1)C2)[C@@H](C)OCc1ccccc1 [I-71A]
IC50: > 10 µM

CNC(=O)[C@@H](NC(=O)[C@H]1CN(C(=O)c2cncs2)CC12CN(C(=O)C(C)(C)C)C2)[C@@H](C)OCC1CCCCC1 [I-186B]
IC50: > 10 µM

CNC(=O)[C@@H](NC(=O)[C@@H]1CN(C(=O)c2cnn(Cc3ccccc3)c2)CC12CN(C(=O)[C@H]1CC1(C)C)C2)[C@@H](C)OCC1CCC(F)(F)CC1 [I-202]
IC50: 0.5 to 5 µM

CC1(C)C[C@@H]1C(=O)N1CC2(CN(C(=O)c3cnn(Cc4ccccc4)c3)C[C@H]2C(=O)N[C@H]2CCN(C3CC3)C2=O)C1 [I-243]
IC50: > 10 µM

CNC(=O)[C@@H](NC(=O)[C@H]1CN(C(=O)c2cnn(CC3CC3)c2)CC12CN(C(=O)CC1CC1)C2)[C@@H](C)OCc1ccccc1 [I-53B]
IC50: > 10 µM

CNC(=O)[C@@H](NC(=O)[C@@H]1CN(Cc2cnc[nH]2)CC12CN(C(=O)[C@H]1CC1(C)C)C2)[C@@H](C)OCc1ccccc1 [I-77A, (S)-6-((1H-imidazol-5-yl)methyl)-N-((2S,3R)-3-(benzyloxy)-1-(methylamino)-1-oxobutan-2-yl)-2-((S)-2,2-dimethylcyclopropane-1-carbonyl)-2,6-diazaspiro[3.4]octane-8-carboxamide]
IC50: > 10 µM

C[C@@H](O)[C@H](NC(=O)[C@@H]1CN(C(=O)c2cnn(C)c2)CC12CN(C(=O)[C@H]1CC1(C)C)C2)C(=O)N1CCCCC1 [I-305]
IC50: 0.5 to 5 µM

CNC(=O)[C@H](COCc1ccccc1)NC(=O)[C@H]1CN(C(=O)c2cnn(Cc3ccccc3)c2)CC12CN(C(=O)C(C)(C)C)C2 [I-100B]
IC50: > 10 µM

C[C@@H](OCC1CCCCC1)[C@H](NC(=O)[C@@H]1CN(C(=O)c2cnn(Cc3ccccc3)c2)CC12CN(C(=O)[C@H]1CC1(C)C)C2)C(=O)N1CC2(CNC2)C1 [I-240]
IC50: > 10 µM

CNC(=O)[C@@H](NC(=O)[C@@H]1CN(C(=O)c2c[nH]c3ccccc23)CC12CN(C(=O)[C@H]1CC1(C)C)C2)[C@@H](C)OCc1ccccc1 [I-72A]
IC50: > 10 µM

CNC(=O)[C@@H](NC(=O)[C@@H]1CN(C(=O)c2cnn(Cc3ccccc3)c2)CC12CN(C(=O)C1(C(F)(F)F)CC1)C2)[C@@H](C)OCc1ccccc1 [I-108A]
IC50: > 10 µM

CC1(C)C[C@@H]1C(=O)N1CC2(CN(C(=O)c3cnn(Cc4ccccc4)c3)C[C@H]2C(=O)N2CCC[C@H](OCC3CCCCC3)C2)C1 [I-236]
IC50: > 10 µM

CCCC(=O)N1CC2(C1)CN(C(=O)c1cnn(Cc3ccccc3)c1)C[C@@H]2C(=O)N[C@H](C(=O)NC)[C@@H](C)OCc1ccccc1 [I-60B]
IC50: > 10 µM

C[C@@H](OCC1CCCCC1)[C@H](NC(=O)[C@@H]1CN(C(=O)c2cnn(Cc3ccccc3)c2)CC12CN(C(=O)[C@H]1CC1(C)C)C2)C(=O)N1CCC(CN)CC1 [I-219]
IC50: 0.5 to 5 µM

CNC(=O)[C@@H](NC(=O)[C@@H]1CN(Cc2cn[nH]c2)CC12CN(C(=O)[C@H]1CC1(C)C)C2)[C@@H](C)OCc1ccccc1 [I-50A]
IC50: > 10 µM

C[C@@H](NC(=O)[C@H]1CN(C(=O)c2cnn(Cc3ccccc3)c2)CC12CN(C(=O)[C@H]1CC1(C)C)C2)c1cccc(F)c1 [I-128B]
IC50: > 10 µM

CNC(=O)[C@@H](NC(=O)[C@H]1CN(C(=O)c2cnn(Cc3ccccc3)c2)CC12CN(C(=O)C(C)(C)F)C2)[C@@H](C)OCc1ccccc1 [I-90B]
IC50: > 10 µM

CC1(C)C[C@@H]1C(=O)N1CC2(CN(C(=O)c3cnn(Cc4ccccc4)c3)C[C@H]2C(=O)N2CCN(CC3CCCCC3)CC2)C1 [I-237]
IC50: > 10 µM

CNC(=O)[C@@H](NC(=O)[C@@H]1CN(S(=O)(=O)c2cnn(Cc3ccccc3)c2)CC12CN(C(=O)[C@H]1CC1(C)C)C2)[C@@H](C)OCc1ccccc1 [I-79A]
IC50: > 10 µM

C[C@@H]1C[C@H](C)CN(C(=O)[C@@H](NC(=O)C2CN(C(=O)c3cn[nH]c3)CC23CN(C(=O)[C@H]2CC2(C)C)C3)[C@@H](C)OCc2ccccc2)C1 (stereo partly drawn) [I-124]
IC50: > 10 µM

C[C@@H](OCc1ccccc1)[C@H](NC(=O)C1CN(C(=O)c2cnn(Cc3ccccc3)c2)CC12CN(C(=O)[C@H]1CC1(C)C)C2)C(=O)N1CCC(F)(F)CC1 (stereo partly drawn) [I-85]
IC50: 0.5 to 5 µM

CNC(=O)[C@@H](NC(=O)[C@H]1CN(C(=O)c2cnn(CC3CCOCC3)c2)CC12CN(C(=O)[C@H]1CC1(C)C)C2)[C@@H](C)OCc1ccccc1 [I-95B]
IC50: > 10 µM

CC1(C)C[C@@H]1C(=O)N1CC2(CN(C(=O)c3cnn(Cc4ccccc4)c3)C[C@H]2C(=O)N2CCO[C@@H](Cc3ccccc3)C2)C1 [I-210]
IC50: > 10 µM

CNC(=O)[C@@H](NC(=O)[C@H]1CN(C(=O)c2cnc(CC3CC3)s2)CC12CN(C(=O)[C@H]1CC1(C)C)C2)[C@@H](C)OCC1CCCCC1 [I-177B]
IC50: > 10 µM

CNC(=O)[C@@H](NC(=O)[C@H]1CN(Cc2n[nH]c3ccccc23)CC12CN(C(=O)[C@H]1CC1(C)C)C2)[C@@H](C)OCc1ccccc1 [I-143]
IC50: > 10 µM

CNC(=O)[C@@H](NC(=O)[C@@H]1CN(C(=O)c2cnn(Cc3ccccc3)c2)CC12CN(C(=O)C(C)(C)F)C2)[C@@H](C)OCc1ccccc1 [I-90A]
IC50: > 10 µM

C[C@@H](OCc1ccccc1)[C@H](NC(=O)C1CN(C(=O)c2cnn(Cc3ccccc3)c2)CC12CN(C(=O)[C@H]1CC1(C)C)C2)C(=O)NCCO (stereo partly drawn) [I-30]
IC50: > 10 µM

CNC(=O)[C@@H](NC(=O)[C@@H]1CN(C(=O)c2scnc2C)CC12CN(C(=O)[C@H]1CC1(C)C)C2)[C@@H](C)OCC1CCCCC1 [I-160A]
IC50: 0.5 to 5 µM

CNC(=O)[C@@H](NC(=O)[C@H]1CN(C(=O)c2cnn(Cc3ccccc3)c2)CC12CN(C(=O)CC1(CO)CC1)C2)[C@@H](C)OCc1ccccc1 [I-92B]
IC50: > 10 µM

CNC(=O)[C@@H](NC(=O)[C@H]1CN(C(=O)c2cnn(Cc3ccccc3)c2)CC12CN(C(=O)[C@H]1CC1(C)C)C2)C(C)(C)SCc1ccccc1 [I-171B]
IC50: > 10 µM

CNC(=O)[C@@H](NC(=O)[C@H]1CN(C(=O)c2cnn(CC3CCNCC3)c2)CC12CN(C(=O)[C@H]1CC1(C)C)C2)[C@@H](C)OCc1ccccc1 [I-19B]
IC50: > 10 µM

CNC(=O)[C@@H](NC(=O)[C@H]1CN(C(=O)c2cnn(Cc3ccccc3)c2)CC12CN(C(=O)[C@H]1CC1(C)C)C2)[C@@H](C)OCC1CCCCCC1 [I-166B]
IC50: 0.5 to 5 µM
